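Interpolation was linear, between the two tested concentrations surrounding the appropriate level; five concentrations were tested over 48 hours in 96-well plates. TGI denotes the concentration required for complete inhibition of growth.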
Experiments:
Assay in all cases: NCI-60 cell line screen, 48 h
HOP-62 NSCLC = test system: HOP-62 NSCLC
OVCAR-4 ovarian = test system: OVCAR-4 ovarian
NCI-H226 lung = test system: NCI-H226 lung
MOLT-4 leukemia = test system: MOLT-4 leukemia
RXF 393 renal = test system: RXF 393 renal
SK-MEL-2 melanoma = test system: SK-MEL-2 melanoma
SK-MEL-28 melanoma = test system: SK-MEL-28 melanoma
MALME-3M melanoma = test system: MALME-3M melanoma
SR leukemia = test system: SR leukemia
OVCAR-8 ovarian = test system: OVCAR-8 ovarian
LOX IMVI melanoma = test system: LOX IMVI melanoma
UACC-62 melanoma = test system: UACC-62 melanoma
HS 578T breast = test system: HS 578T breast
K-562 leukemia = test system: K-562 leukemia
DU-145 prostate = test system: DU-145 prostate
NCI-H460 lung = test system: NCI-H460 lung
MDA-MB-231 breast = test system: MDA-MB-231 breast
RPMI-8226 leukemia = test system: RPMI-8226 leukemia
HT29 colon = test system: HT29 colon
HCT-15 colon = test system: HCT-15 colon
U251 CNS = test system: U251 CNS
ACHN renal = test system: ACHN renal
NCI-H23 lung = test system: NCI-H23 lung
COLO 205 colon = test system: COLO 205 colon
HCC-2998 colon = test system: HCC-2998 colon
HL-60(TB) leukemia = test system: HL-60(TB) leukemia
IGROV1 ovarian = test system: IGROV1 ovarian
HCT-116 colon = test system: HCT-116 colon
A498 renal = test system: A498 renal
SF-268 CNS = test system: SF-268 CNS
A549 NSCLC = test system: A549 NSCLC
OVCAR-5 ovarian = test system: OVCAR-5 ovarian
KM12 colon = test system: KM12 colon
SN12C renal = test system: SN12C renal
HOP-92 NSCLC = test system: HOP-92 NSCLC
UACC-257 melanoma = test system: UACC-257 melanoma
SNB-19 CNS = test system: SNB-19 CNS
SW-620 colon = test system: SW-620 colon
MCF7 breast = test system: MCF7 breast
CAKI-1 renal = test system: CAKI-1 renal
UO-31 renal = test system: UO-31 renal
TK-10 renal = test system: TK-10 renal
786-0 renal = test system: 786-0 renal
EKVX NSCLC = test system: EKVX NSCLC
SK-MEL-5 melanoma = test system: SK-MEL-5 melanoma
NCI/ADR-RES ovarian = test system: NCI/ADR-RES ovarian
OVCAR-3 ovarian = test system: OVCAR-3 ovarian
BT-549 breast = test system: BT-549 breast
T-47D breast = test system: T-47D breast
SF-295 CNS = test system: SF-295 CNS
MDA-N = test system: MDA-N
CCRF-CEM leukemia = test system: CCRF-CEM leukemia
MDA-MB-435 = test system: MDA-MB-435
NCI-H522 lung = test system: NCI-H522 lung
SK-OV-3 ovarian = test system: SK-OV-3 ovarian
SF-539 CNS = test system: SF-539 CNS
M14 melanoma = test system: M14 melanoma
SNB-75 CNS = test system: SNB-75 CNS
PC-3 prostate = test system: PC-3 prostate

Measured: TGI

CCOC(=O)N/N=C(/OCC)c1ccccc1
not listed: M14 melanoma | SNB-75 CNS | PC-3 prostate
> 100 µM: all other assays above

O=[N+]([O-])C(C(Cl)=C(Cl)Cl)=C(N(Cc1ccccc1)Cc1ccccc1)N(Cc1ccccc1)Cc1ccccc1
55.4 µM: HCC-2998 colon
60.6 µM: CCRF-CEM leukemia
78 µM: HL-60(TB) leukemia
98.3 µM: SK-MEL-2 melanoma
86.6 µM: A498 renal
79.8 µM: MDA-MB-435
57.1 µM: HOP-92 NSCLC
76.6 µM: SF-539 CNS
not listed: OVCAR-4 ovarian | SR leukemia | RPMI-8226 leukemia
> 100 µM: all other assays above

CCOC(=O)CSc1nc(N)c2c(-c3ccc(OC)c(OC)c3)c3c(nc2n1)CCCC3
32.6 µM: SNB-75 CNS
87.4 µM: OVCAR-8 ovarian
35.6 µM: HS 578T breast
not listed: NCI-H226 lung | SK-MEL-2 melanoma | HCC-2998 colon | A498 renal | HOP-92 NSCLC | 786-0 renal | NCI-H522 lung | SF-539 CNS
> 100 µM: all other assays above

NC(=O)NNc1nc2ccccc2c(=O)n1NC(=O)C(=O)Nc1ccc(Cl)cc1Cl
not listed: DU-145 prostate | COLO 205 colon | HL-60(TB) leukemia
> 100 µM: all other assays above

COc1cccc(-c2c(C#N)c(N)nc3c2CCS(=O)(=O)c2ccc(C)cc2-3)c1
not listed: MOLT-4 leukemia | RXF 393 renal | MCF7 breast | EKVX NSCLC | SF-295 CNS | SK-OV-3 ovarian | SF-539 CNS
> 100 µM: all other assays above

CCOC(=O)c1ccc(N=C2C(=S)N(c3ccc(C(=O)OCC)cc3)C(=N)N2/N=C/c2ccccc2)cc1
18.4 µM: PC-3 prostate
35.6 µM: SK-MEL-5 melanoma
51.2 µM: SF-539 CNS
62.2 µM: TK-10 renal
52 µM: SF-268 CNS
30.5 µM: HCT-116 colon
28.9 µM: UO-31 renal
38.3 µM: UACC-62 melanoma
70.4 µM: SF-295 CNS
49.1 µM: MALME-3M melanoma
41.3 µM: SN12C renal
42.2 µM: CAKI-1 renal
40.5 µM: OVCAR-5 ovarian
25 µM: COLO 205 colon
28.8 µM: OVCAR-3 ovarian
24.9 µM: M14 melanoma
31.4 µM: NCI-H226 lung
30 µM: 786-0 renal
58 µM: HCC-2998 colon
> 100 µM: SK-MEL-2 melanoma | SR leukemia | OVCAR-8 ovarian | HS 578T breast | K-562 leukemia | DU-145 prostate | NCI-H460 lung | RPMI-8226 leukemia | HT29 colon | HCT-15 colon | IGROV1 ovarian | A549 NSCLC | EKVX NSCLC | NCI/ADR-RES ovarian
36.2 µM: HOP-92 NSCLC
6.1 µM: NCI-H522 lung
32.6 µM: MDA-MB-231 breast
63.1 µM: T-47D breast
80.2 µM: BT-549 breast
28.5 µM: MCF7 breast
59 µM: SK-OV-3 ovarian
31.2 µM: KM12 colon
19.3 µM: RXF 393 renal
44.5 µM: SNB-19 CNS
33 µM: MDA-N

CC(=O)N1C(Nc2ccccn2)CCN1c1ccccc1 (stereo not given)
not listed: UACC-62 melanoma | U251 CNS | A498 renal | KM12 colon
> 10 µM: all other assays above
